Assay results taken from ChEMBL document CHEMBL5052832, “Inhibition of ngly1 for the treatment of cancer” (2021).
Calls of active or inactive are those of the source. No cut-off for these calls is given here.

What was measured:
[1] = system: UACC-257; assay: Antiproliferative activity against doxycycline-induced NGLY1 knocked down human UACC-257 cells at 20 uM in presence of dacarbazine assessed as decrease in growth inhibition after 72 hrs by MTT assay; format: functional, cell-based
[2] = system: SK-MEL-2; assay: Antiproliferative activity against human SK-MEL-2 cells at 10 to 1000 uM assessed as decrease in cell viability; format: functional, cell-based; conditions: dose 10-1000 µM
[3] = Antiproliferative activity against human HDF418 cells at 10 to 1000 uM assessed as decrease in cell viability; format: toxicity, cell-based; conditions: hdf418, 1000 µM, dose 10-1000 µM
[4] = system: UACC-257; assay: Antiproliferative activity against human UACC-257 cells at 10 to 1000 uM assessed as decrease in cell viability; format: functional, cell-based; conditions: dose 10-1000 µM
[5] = Antiproliferative activity against human HDF51 cells at 10 to 1000 uM assessed as decrease in cell viability; format: toxicity, cell-based; conditions: hdf51, 1000 µM, dose 10-1000 µM
[6] = biological target: T1, Peptide-N(4)-(N-acetyl-beta-glucosaminyl)asparagine amidase (Homo sapiens) (UniProt Q96IV0); assay: Inhibition of NGLY1 in human UACC-257 cells at 200 uM assessed as increase in IL-29 production measured after 48 hrs; format: cell-based
T1 sequence (whole entry): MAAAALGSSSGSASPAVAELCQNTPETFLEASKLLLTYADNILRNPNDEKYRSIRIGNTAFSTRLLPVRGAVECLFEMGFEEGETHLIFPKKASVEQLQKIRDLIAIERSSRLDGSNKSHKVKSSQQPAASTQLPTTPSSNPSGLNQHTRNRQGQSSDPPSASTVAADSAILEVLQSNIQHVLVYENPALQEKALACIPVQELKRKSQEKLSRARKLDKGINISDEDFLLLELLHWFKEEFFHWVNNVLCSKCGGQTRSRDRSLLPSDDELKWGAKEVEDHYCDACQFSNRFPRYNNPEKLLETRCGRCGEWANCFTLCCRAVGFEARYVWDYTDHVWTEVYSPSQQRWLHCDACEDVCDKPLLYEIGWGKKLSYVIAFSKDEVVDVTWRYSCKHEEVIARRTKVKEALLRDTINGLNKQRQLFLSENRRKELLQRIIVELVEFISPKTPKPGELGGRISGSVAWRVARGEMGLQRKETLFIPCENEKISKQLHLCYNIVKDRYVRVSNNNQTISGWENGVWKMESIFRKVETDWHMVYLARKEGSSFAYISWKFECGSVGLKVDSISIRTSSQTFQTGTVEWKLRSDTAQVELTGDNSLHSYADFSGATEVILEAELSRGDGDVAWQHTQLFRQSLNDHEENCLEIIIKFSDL

[7] = biological target: T1, Peptide-N(4)-(N-acetyl-beta-glucosaminyl)asparagine amidase (Homo sapiens); assay: Inhibition of NGLY1 in human SK-MEL-2 cells at 200 uM assessed as increase in IFN-beta1 production measured after 48 hrs; format: cell-based
[8] = biological target: T1, Peptide-N(4)-(N-acetyl-beta-glucosaminyl)asparagine amidase (Homo sapiens); assay: Inhibition of NGLY1 in human HDF51 cells at 200 uM assessed as increase in IFN-beta1 production measured after 48 hrs; format: cell-based
[9] = biological target: T1, Peptide-N(4)-(N-acetyl-beta-glucosaminyl)asparagine amidase (Homo sapiens); assay: Inhibition of NGLY1 in human UACC-257 cells at 200 uM assessed as increase in IFN-beta1 production measured after 48 hrs; format: cell-based
[10] = biological target: T1, Peptide-N(4)-(N-acetyl-beta-glucosaminyl)asparagine amidase (Homo sapiens); assay: Inhibition of NGLY1 in human HDF51 cells at 200 uM assessed as increase in IL-29 production measured after 48 hrs; format: cell-based
[11] = biological target: T1, Peptide-N(4)-(N-acetyl-beta-glucosaminyl)asparagine amidase (Homo sapiens); assay: Inhibition of NGLY1 in human SK-MEL-2 cells at 200 uM assessed as increase in IL-29 production measured after 48 hrs; format: cell-based
[12] = system: SK-MEL-2; assay: Antiproliferative activity against human SK-MEL-2 cells assessed as decrease in cell viability in presence of dacarbazine; format: functional, cell-based
[13] = biological target: T1, Peptide-N(4)-(N-acetyl-beta-glucosaminyl)asparagine amidase (Homo sapiens); assay: Inhibition of NGLY1 in human HEK293T cells at 200 uM assessed as retention of N-glycans on full-length NFE2L1 measured by electrophoretic mobility shift assay; format: cell-based
[14] = system: SK-MEL-2; assay: Antiproliferative activity against human SK-MEL-2 cells assessed as decrease in cell viability in presence of bortezomib; format: functional, cell-based
[15] = system: Malme-3M; assay: Antiproliferative activity against doxycycline-induced NGLY1 knocked down human Malme-3M cells at 20 uM in presence of dacarbazine assessed as decrease in growth inhibition after 72 hrs by MTT assay; format: functional, cell-based

Activity [6]	Activity [7]	Activity [8]	Activity [9]	Activity [10]	Activity [11]	inhibition [13]	Structure (SMILES)	Activity [1]	Activity [2]	Activity [3]	Activity [4]	Activity [5]	Activity [12]	Activity [14]	Activity [15]
							CCCNC(=O)[C@H](CC(=O)N[C@@H]1O[C@H](COC(C)=O)[C@@H](OC(C)=O)[C@H](OC(C)=O)[C@H]1NC(C)=O)NC(=O)/C=C/CN(C)C	Active	Active	Non-Toxic	Active	Non-Toxic			
Active	Active	inactive	Active	inactive	Active		C=CS(=O)(=O)N[C@@H](CC(=O)N[C@@H]1O[C@H](COC(C)=O)[C@@H](OC(C)=O)[C@H](OC(C)=O)[C@H]1NC(C)=O)C(=O)NCCC	Active	Active	Non-Toxic	Active	Non-Toxic			
Active	Active	inactive	Active	inactive	Active		C=CC(=O)N[C@@H](CC(=O)N[C@@H]1O[C@H](COC(C)=O)[C@@H](OC(C)=O)[C@H](OC(C)=O)[C@H]1NC(C)=O)C(=O)NCCC	Active	Active	Non-Toxic	Active	Non-Toxic	Active		
Active	Active		Active		Active	Active	CCCNC(=O)[C@H](CC(=O)N[C@@H]1O[C@H](COC(C)=O)[C@@H](OC(C)=O)[C@H](OC(C)=O)[C@H]1NC(C)=O)NC(=O)CCl	Active	Active	Non-Toxic	Active	Non-Toxic		Active	Active
